Experimental data as given in PubChem BioAssay AID328 (DTP/NCI, 2004).
Where “and” joins values, the source holds several entries; their conditions need not be identical. Equal entries are not always repeated. Inconclusive results and toxic doses are left out.

Tested on: BDF1 mice, P388 leukemia ip, median survival T/C
Experiment: NCI In Vivo Anticancer Drug Screen. Data for tumor model P388 Leukemia (intraperitoneal) in B6D2F1 (BDF1) mice
Conditions: endpoint: median survival time, higher = longer survival
Procedure, shortened: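 Mice carrying the transplantable tumour receive compound or vehicle. Survival is followed in each arm, and the treated measure is divided by the vehicle measure.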

[1] = dose: 12.5 mg/kg/injection, schedule: Q01DX009 (ip), vehicle: saline with Tween-80
[2] = dose: 25.0 mg/kg/injection, schedule: Q01DX009 (ip), vehicle: saline with Tween-80
[3] = dose: 100.0 mg/kg/injection, schedule: Q04DX003 (ip), vehicle: saline + alcohol
[4] = dose: 200.0 mg/kg/injection, schedule: Q04DX003 (ip), vehicle: saline
[5] = dose: 12.5 mg/kg/injection, schedule: Q04DX003 (ip), vehicle: Klucel (hydroxypropylcellulose) (HPC)
[6] = dose: 25.0 mg/kg/injection, schedule: Q04DX003 (ip), vehicle: Klucel (hydroxypropylcellulose) (HPC)
[7] = dose: 50.0 mg/kg/injection, schedule: Q04DX003 (ip), vehicle: Klucel (hydroxypropylcellulose) (HPC)

In the case of `NC1=CC(=O)c2ccccc2C1=O`, the T/C (dose: 6.25 mg/kg/injection, schedule: Q01DX009 (ip), vehicle: saline with Tween-80) is reported as 101 % of control, the T/C [1] is reported as 113 % of control and the T/C [2] is reported as 103 % of control. For the same compound, the T/C (dose: 50.0 mg/kg/injection, schedule: Q01DX009 (ip), vehicle: saline with Tween-80) was 103 % of control.
For `COc1ccc2nc(C)c(COC(C)=O)cc2c1`, the T/C (dose: 25.0 mg/kg/injection, schedule: Q01DX009 (ip), vehicle: saline + alcohol) was 93 % of control, the T/C (dose: 50.0 mg/kg/injection, schedule: Q01DX009 (ip), vehicle: saline + alcohol) was 111 % of control and the T/C (dose: 50.0 mg/kg/injection, schedule: Q04DX003 (ip), vehicle: saline + alcohol) was 109 % of control. For the same compound, the T/C (dose: 100.0 mg/kg/injection, schedule: Q01DX009 (ip), vehicle: saline + alcohol) was 101 % of control, the T/C [3] was 109 % of control and the T/C (dose: 200.0 mg/kg/injection, schedule: Q01DX009 (ip), vehicle: saline + alcohol) was 90 % of control. For the same compound, the T/C (dose: 200.0 mg/kg/injection, schedule: Q04DX003 (ip), vehicle: saline + alcohol) was 97 % of control, the T/C (dose: 400.0 mg/kg/injection, schedule: Q01DX009 (ip), vehicle: saline + alcohol) was 109 % of control and the T/C (dose: 400.0 mg/kg/injection, schedule: Q04DX003 (ip), vehicle: saline + alcohol) was 110 % of control.
With `O=C1OC(COCC#Cc2ccccc2)CN1c1ccccc1` (configuration not stated) the T/C (dose: 100.0 mg/kg/injection, schedule: Q01DX009 (ip), vehicle: saline with Tween-80) was 104 % of control, the T/C (dose: 100.0 mg/kg/injection, schedule: Q04DX003 (ip), vehicle: saline) was 92 % of control and the T/C (dose: 200.0 mg/kg/injection, schedule: Q01DX009 (ip), vehicle: saline with Tween-80) was 100 % of control. For the same compound, the T/C [4] was 107 % of control, the T/C (dose: 400.0 mg/kg/injection, schedule: Q01DX009 (ip), vehicle: saline with Tween-80) was 100 % of control and the T/C (dose: 400.0 mg/kg/injection, schedule: Q04DX003 (ip), vehicle: saline) was 92 % of control.
`CC1C(=O)OCC2=CCN3CCC(OC(=O)C(C)C1(C)O)C23` (configuration not stated) was tested, and the T/C (dose: 10.0 mg/kg/injection, schedule: Q01DX010 (ip), vehicle: saline) was 100 % of control, the T/C (dose: 20.0 mg/kg/injection, schedule: Q01DX010 (ip), vehicle: saline) was 105 % of control and the T/C (dose: 25.0 mg/kg/injection, schedule: Q01DX010 (ip), vehicle: carboxymethylcellulose (CMC)) was 122 % of control. The T/C (dose: 40.0 mg/kg/injection, schedule: Q01DX010 (ip), vehicle: saline) was 150 % of control, the T/C (dose: 50.0 mg/kg/injection, schedule: Q01DX010 (ip), vehicle: carboxymethylcellulose (CMC)) was 111 % of control and the T/C (dose: 100.0 mg/kg/injection, schedule: Q01DX010 (ip), vehicle: carboxymethylcellulose (CMC)) was 88 % of control.
With `COc1c(Br)cc(N=Cc2ccc(N(CCCl)CCCl)cc2C)cc1Br` the T/C (dose: 88.0 mg/kg/injection, schedule: Q01DX010 (ip), vehicle: carboxymethylcellulose (CMC)) was 115 % of control, the T/C (dose: 133.0 mg/kg/injection, schedule: Q01DX010 (ip), vehicle: carboxymethylcellulose (CMC)) was 155 % of control and the T/C (dose: 200.0 mg/kg/injection, schedule: Q01DX010 (ip), vehicle: carboxymethylcellulose (CMC)) was 165 % of control. For the same compound, the T/C (dose: 300.0 mg/kg/injection, schedule: Q01DX010 (ip), vehicle: carboxymethylcellulose (CMC)) was 215 % of control.
`CC1=CC(=Nc2ccc(N(C)C)cc2)C=CC1=O` was tested, and the T/C (dose: 3.13 mg/kg/injection, schedule: Q01DX009 (ip), vehicle: suspension in saline) was 98 % of control, the T/C (dose: 6.25 mg/kg/injection, schedule: Q01DX009 (ip), vehicle: suspension in saline) was 117 % of control and the T/C (dose: 12.5 mg/kg/injection, schedule: Q01DX009 (ip), vehicle: suspension in saline) was 123 % of control. For the same compound, the T/C (dose: 25.0 mg/kg/injection, schedule: Q01DX009 (ip), vehicle: suspension in saline) was 117 % of control.
`CCCC1=NNc2n[nH]c(=S)n2N1` was tested, and the T/C [5] was 100 % of control, the T/C [6] was 91 % of control and the T/C [7] was 91 % of control.
With `CCOCc1cc([N+](=O)[O-])cc([N+](=O)[O-])c1O` the T/C [1] was 109 % of control and the T/C [2] was 113 % of control.
In the case of `Cc1ccc(C(=O)C2(c3ccc(C)cc3)OC(c3ccc(C)cc3)=C(c3ccc(C)cc3)S2)cc1` (configuration not stated), the T/C (dose: 50.0 mg/kg/injection, schedule: Q01DX009 (ip), vehicle: other) is reported as 104 % of control, the T/C (dose: 100.0 mg/kg/injection, schedule: Q01DX009 (ip), vehicle: other) is reported as 100 % of control and the T/C (dose: 200.0 mg/kg/injection, schedule: Q01DX009 (ip), vehicle: other) is reported as 100 % of control.
For `CC(CC(=O)O)C(C(=O)O)C(=O)O` (configuration not stated), the T/C (dose: 6.25 mg/kg/injection, schedule: Q04DX003 (ip), vehicle: Klucel (hydroxypropylcellulose) (HPC)) was 94 % of control, the T/C (dose: 6.25 mg/kg/injection, schedule: Q04DX003 (ip), vehicle: water) was 107 % of control and the T/C (dose: 12.5 mg/kg/injection, schedule: Q01DX009 (ip), vehicle: water) was 108 % of control. For the same compound, the T/C [5] was 92 % of control, the T/C (dose: 12.5 mg/kg/injection, schedule: Q04DX003 (ip), vehicle: water) was 95 % of control and 105 % of control and the T/C (dose: 25.0 mg/kg/injection, schedule: Q01DX009 (ip), vehicle: water) was 107 % of control. The T/C [6] was 92 % of control, the T/C (dose: 25.0 mg/kg/injection, schedule: Q04DX003 (ip), vehicle: water) was 266 % of control and 94 % of control and 110 % of control and the T/C [7] was 90 % of control. For the same compound, the T/C (dose: 50.0 mg/kg/injection, schedule: Q04DX003 (ip), vehicle: water) was 266 % of control and 95 % of control and 117 % of control, the T/C (dose: 100.0 mg/kg/injection, schedule: Q01DX009 (ip), vehicle: water) was 100 % of control and the T/C (dose: 100.0 mg/kg/injection, schedule: Q04DX003 (ip), vehicle: Klucel (hydroxypropylcellulose) (HPC)) was 91 % of control. For the same compound, the T/C (dose: 100.0 mg/kg/injection, schedule: Q04DX003 (ip), vehicle: water) was 86 % of control and 95 % of control and 100 % of control, the T/C (dose: 200.0 mg/kg/injection, schedule: Q01DX009 (ip), vehicle: water) was 91 % of control and the T/C (dose: 200.0 mg/kg/injection, schedule: Q04DX003 (ip), vehicle: Klucel (hydroxypropylcellulose) (HPC)) was 90 % of control. For the same compound, the T/C (dose: 200.0 mg/kg/injection, schedule: Q04DX003 (ip), vehicle: water) was 101 % of control and 111 % of control and the T/C (dose: 400.0 mg/kg/injection, schedule: Q01DX009 (ip), vehicle: water) was 91 % of control.
For `C#CCOCC1CN(C)C(=O)O1` (configuration not stated), the T/C (dose: 25.0 mg/kg/injection, schedule: Q01DX009 (ip), vehicle: saline) was 104 % of control, the T/C (dose: 50.0 mg/kg/injection, schedule: Q01DX009 (ip), vehicle: saline) was 100 % of control and the T/C (dose: 50.0 mg/kg/injection, schedule: Q04DX003 (ip), vehicle: saline) was 91 % of control. The T/C (dose: 100.0 mg/kg/injection, schedule: Q01DX009 (ip), vehicle: saline) was 100 % of control, the T/C (dose: 200.0 mg/kg/injection, schedule: Q01DX009 (ip), vehicle: saline) was 100 % of control and the T/C [4] was 100 % of control.
In the case of `CCO/C=C1\SC(=S)N(Cc2ccccc2)C1=O`, the T/C (dose: 12.5 mg/kg/injection, schedule: Q01DX009 (ip), vehicle: other) is reported as 86 % of control, the T/C (dose: 25.0 mg/kg/injection, schedule: Q01DX009 (ip), vehicle: other) is reported as 109 % of control and the T/C (dose: 44.0 mg/kg/injection, schedule: Q04DX003 (ip), vehicle: other) is reported as 118 % of control. For the same compound, the T/C (dose: 44.0 mg/kg/injection, schedule: Q04DX003 (ip), vehicle: saline + alcohol) was 100 % of control, the T/C (dose: 44.0 mg/kg/injection, schedule: Q04DX003 (ip), vehicle: saline with Tween-80) was 118 % of control and the T/C [3] was 104 % of control. For the same compound, the T/C (dose: 150.0 mg/kg/injection, schedule: Q04DX003 (ip), vehicle: other) was 154 % of control, the T/C (dose: 150.0 mg/kg/injection, schedule: Q04DX003 (ip), vehicle: saline + alcohol) was 95 % of control and the T/C (dose: 150.0 mg/kg/injection, schedule: Q04DX003 (ip), vehicle: saline with Tween-80) was 116 % of control.
`Nc1nc(N)c2cc(CNc3ccc(C(=O)NC(CC(=O)O)C(=O)O)cc3)ccc2n1` (configuration not stated) was tested, and the T/C (dose: 0.11 mg/kg/injection, schedule: Q01DX009 (ip), vehicle: saline) was 112 % of control, the T/C (dose: 0.38 mg/kg/injection, schedule: Q01DX009 (ip), vehicle: saline) was 154 % of control and the T/C (dose: 0.5 mg/kg/injection, schedule: Q01DX009 (ip), vehicle: saline) was 183 % of control. The T/C (dose: 1.0 mg/kg/injection, schedule: Q04DX003 (ip), vehicle: saline sonified) was 213 % of control, the T/C (dose: 2.0 mg/kg/injection, schedule: Q04DX003 (ip), vehicle: saline sonified) was 204 % of control and the T/C (dose: 5.5 mg/kg/injection, schedule: Q04DX003 (ip), vehicle: saline sonified) was 161 % of control. For the same compound, the T/C (dose: 6.25 mg/kg/injection, schedule: Q01DX009 (ip), vehicle: saline) was 95 % of control, the T/C (dose: 8.25 mg/kg/injection, schedule: Q04DX003 (ip), vehicle: saline sonified) was 177 % of control and the T/C (dose: 25.0 mg/kg/injection, schedule: Q04DX003 (ip), vehicle: saline sonified) was 96 % of control.
